Consider one molecule from patent publication US20240307415A1, “STEROID COMPOUND, AND PHARMACEUTICAL COMPOSITION THEREOF AND USE THEREOF” (JIANGSU SIMCERE PHARMACEUTICAL CO., LTD., priority 2021, published 2024).

One data set has as its system K562-GRE reporter gene. The experiment in a line: K562-GRE reporter gene activity. It is filed as cell-based. The settings on record: 24 h, read-out: K562-GRE Reporter EC50. The method, then:
To generate the parental K562-GRE cell line, K562 cells were seeded at 5×10^5 cells/well onto a 6-well plate (brand: Costar, Cat. No: 3516) containing 2 mL of complete medium (RPM1640, 10% FBS, penicillin-streptomycin) and cultured at 37° C. with 5% CO2 for 24 h. The next day, 3 μg of pNL2.2[NLucP/MMTV/Hygro-NANO] (Promega) and 3 μL of PLUS reagent (brand: Invitrogen, Cat. No: 11514-015) were diluted in 150 μL of Opti-MEM (brand: Gibco, Cat. No: 11058021) and incubated at room temperature for 5 min. The pNL2.2[NLucP/MMTV/Hygro-NANO] vector contains MMTV LTR (mouse mammary tumor virus long terminal repeat), which drives transcription of the luciferase reporter gene NanoLuc in response to activation of several nuclear receptors (e.g. glucocorticoid receptor and androgen receptor). After incubation, the diluted DNA solution was mixed with Lipofectamine LTX solution (brand: Invitrogen, Cat. No: 15338-100) (6 μL of Lipofectamine LTX+144 μL of Opti-MEM) in a 1:1 ratio, pre-incubated, and incubated at room temperature for 15 min to form a DNA-Lipofectamine LTX complex. After incubation, 300 μL of the DNA-Lipofectamine complex was added directly to the cell wells. The K562 cells were transfected at 37° C. with 5% CO2 for 24 h. After transfection, the cells were washed with 3 mL of PBS and selectively grown for two weeks with complete growth medium containing 125 μg/mL hygromycin B (brand: Invitrogen, Cat. No: 10687010). “K562-GRE (pNL2.2[NLucP/MMTV/Hygro-NANO])” cells were generated.
After mixing, the cells were cultured in an incubator at 37° C. for 24 h. After 24 h of incubation, an equal volume of 100 μL of Nano-Glo luciferase assay system (brand: Promega, Cat. No: N1120) was added to the cells, the mixture was reacted in a shaker at […] for 10 min, and the chemiluminescence values were detected using the PHERAstar instrument. The antibody binding curves were plotted using the logarithmic value of the antibody concentration as the abscissa and the corresponding chemiluminescence reading as the ordinate, and the EC50 value was calculated by four-parameter fitting (GraphPad Prism9).
(In general: A reporter such as luciferase makes a cellular process visible.)

Data set [1] is described as follows: Metabolic stability in mouse liver microsomes. Particulars: CD-1, mouse, pH 7.4, 1 μM compound, 0.5 mg/mL microsome, NADPH 1 mM, 37° C., read-out: Mouse liver microsome stability t1/2. Type of data set: in vitro ADME. The text has this: • 1. Human liver microsome (Corning 452117), beagle dog liver microsome (XENOTECH D1000), SD rat liver microsome (XENOTECH R1000), and CD-1 mouse liver microsome (XENOTECH M1000) • 2. Na2HPO4 (Tianjin Guangfu Fine Chemical Research Institute 20180130) • 3. KH2PO4 (Tianjin Guangfu Fine Chemical Research Institute 20180920) • 4. MgCl2 (Tianjin Guangfu Fine Chemical Research Institute 20191216) • 5. NADPH (Solarbio 1216C022) • 6. Positive control compound verapamil (Sigma MKBV4993V) • 7. AB Sciex API4000 liquid chromatography-mass spectrometry system
• 1. Preparation of 100 mM phosphate-buffered saline (PBS): 7.098 g Na2HPO4 was weighed. 500 mL pure water was added. The mixture was dissolved by sonication to give solution A. 3.400 g KH2PO4 was weighed. 250 mL pure water was added. […]
All data were calculated by Microsoft Excel software. The peak area was detected through an extracted ion chromatogram. The in vitro half-life (t1/2) of the compound was determined by linear fitting of the natural logarithm of compound elimination percentage over time.
In vitro half-life (t1/2) was calculated by the slope k: […]
The in vitro intrinsic clearance (in μL/min/mg protein) was calculated using the following formula: […]
A general note: Microsomes from liver hold many membrane-bound enzymes, among them those of drug oxidation.

With `C[C@]12C=CC(=O)C=C1CC[C@@H]1[C@@H]2[C@@H](O)C[C@@]2(C)[C@H]1C[C@H]1O[C@@H](c3ccc(Cc4cc(N)c5c(c4)CCO5)cc3)O[C@]12C(=O)CO` [Compound 009, (6aR,6bS,7S,8aS,8bS,10R,11aR,12aS,12bS)-10-(4-((7-amino-2,3-dihydrobenzofuran-5-yl)methyl)phenyl)-7-hydroxy-8b-(2-hydroxyacetyl)-6a,8a-dimethyl-6a,6b,7,8,8a,8b,11a,12,12a,12b-decahydro-1H-naphtho[2′,1′:4,5]indeno[1,2-d][1,3]dioxolan-4(2H)-one], the concentration for a half-maximal effect (EC50) with K562-GRE reporter gene came out at 5.76 nM. Besides, the half-life at 1 μM in data set [1] stood at 17.3 min.

By EC50 is commonly meant the midpoint of the concentration-response curve.
